Measured values from ChEMBL document CHEMBL1155237, “Selective inhibitors of the mutant B-Raf pathway: discovery of a potent and orally bioavailable aminoisoquinoline” (J Med Chem, 2009).

Experiments:
[1] = Elimination half life in Sprague-Dawley rat at 2 mg/kg, iv and 5 mg/kg, po; format: ADME, organism-based; conditions: in vivo, read-out: beta t1/2 (converted)
A-375 [2] = assay: Antitumor activity against human A375 SQ2 cells xenografted in po dosed CD1 mouse assessed as inhibition of tumor growth administered twice daily for 14 days; format: functional; conditions: 336 h
[3] = target: Mitogen-activated protein kinase 14 (Homo sapiens, UniProt Q16539); assay: Inhibition of p38alpha
A-375 [4] = assay: Antitumor activity against human A375 SQ2 cells xenografted in CD1 mouse assessed as inhibition of tumor growth at 60 mg/kg, po bid for 14 days; format: functional; conditions: A375-SQ2, 336 h
Mus musculus [5] = assay: Inhibition of ERK phosphorylation in human A375 SQ2 cells xenografted CD1 mouse at 60 mg/kg, po bid after 6 hrs; format: functional; conditions: CD1, A375-SQ2, 6 h
A-375 [6] = assay: Antitumor activity against human A375 SQ2 cells xenografted in CD1 mouse assessed as inhibition of tumor growth at 30 mg/kg, po bid for 14 days; format: functional; conditions: A-375, 336 h
Mus musculus [7] = assay: Inhibition of ERK phosphorylation in human A375 SQ2 cells xenografted CD1 mouse at 100 mg/kg, po bid after 6 hrs; format: functional; conditions: CD1, A375-SQ2, 6 h
[8] = target: Vascular endothelial growth factor receptor 2 (Homo sapiens, UniProt P35968); assay: Inhibition of KDR
A-375 [9] = assay: Antitumor activity against human A375 SQ2 cells xenografted in CD1 mouse assessed as regression of tumor growth at 100 mg/kg, po bid for 14 days; format: functional
Angiopoietin-1 receptor = Angiopoietin-1 receptor (Homo sapiens, UniProt Q02763); assay: Inhibition of Tie2
[10] = Volume of distribution at steady state in Sprague-Dawley rat at 2 mg/kg, iv and 5 mg/kg, po; format: ADME, organism-based; conditions: in vivo, read-out: Vdss
Mus musculus [11] = assay: Inhibition of ERK phosphorylation in human A375 SQ2 cells xenografted CD1 mouse at 30 mg/kg, po bid after 6 hrs; format: functional; conditions: CD1, A375-SQ2, 6 h
[12] = Oral bioavailability in Sprague-Dawley rat at 5 mg/kg; format: ADME, organism-based; conditions: in vivo
[13] = target: Tyrosine-protein kinase Lck (Homo sapiens, UniProt P06239); assay: Inhibition of LCK
[14] = Clearance in Sprague-Dawley rat at 2 mg/kg, iv and 5 mg/kg, po; format: ADME, organism-based; conditions: in vivo
[15] = target: Serine/threonine-protein kinase B-raf (Homo sapiens, UniProt P15056, V600E); assay: Inhibition of recombinant Braf V600E mutant
Mus musculus [16] = assay: Inhibition of ERK phosphorylation in human A375 SQ2 cells xenografted CD1 mouse at 35 mg/kg, po bid after 6 hrs; format: functional; conditions: CD1, A375-SQ2, 6 h
A-375 [17] = assay: Antitumor activity against human A375 SQ2 cells xenografted in CD1 mouse assessed as inhibition of tumor growth at 17.5 mg/kg, po bid for 14 days; format: functional; conditions: A375-SQ2, 336 h
[18] = AUC (0 to 24 hrs) in human A375 SQ2 cells xenografted po dosed CD1 mouse administered twice daily for 14 days; format: ADME, organism-based; design: time < 24 hr, route oral; conditions: in vivo
A-375 [19] = assay: Antitumor activity against human A375 SQ2 cells xenografted in CD1 mouse assessed as regression of tumor growth at 35 mg/kg, po bid for 14 days; format: functional
Mus musculus [20] = assay: Inhibition of ERK phosphorylation in human A375 SQ2 cells xenografted CD1 mouse at 17.5 mg/kg, po bid after 6 hrs; format: functional; conditions: CD1, A-375, 6 h
Mus musculus [21] = assay: Inhibition of ERK phosphorylation in human A375 SQ2 cells xenografted CD1 mouse at 10 mg/kg, po bid after 6 hrs; format: functional; conditions: CD1, A375-SQ2, 6 h
A-375 [22] = assay: Antitumor activity against human A375 SQ2 cells xenografted in CD1 mouse assessed as inhibition of tumor growth at 10 mg/kg, po bid for 14 days; format: functional; conditions: A375-SQ2, 336 h
Mus musculus [23] = assay: Inhibition of ERK phosphorylation in human A375 SQ2 cells xenografted CD1 mouse at 20 mg/kg, po bid after 6 hrs; format: functional; conditions: CD1, A375-SQ2, 6 h
A-375 [24] = assay: Antitumor activity against human A375 SQ2 cells xenografted in CD1 mouse assessed as inhibition of tumor growth at 20 mg/kg, po bid for 14 days; format: functional; design: Activity: scale not given: the % may be the effect or the level left; conditions: for inhibition in vivo at 20 mg/kg: Mus musculus, A375-SQ2, 336 h
A-375 [25] = assay: Antitumor activity against human A375 SQ2 cells xenografted in CD1 mouse assessed as inhibition of tumor growth at 5 mg/kg, po bid for 14 days; format: functional; conditions: A375-SQ2, 336 h
Mus musculus [26] = assay: Inhibition of ERK phosphorylation in human A375 SQ2 cells xenografted CD1 mouse at 5 mg/kg, po bid after 6 hrs; format: functional; conditions: CD1, A-375, 6 h

Sequence of Tyrosine-protein kinase Lck (P06239 whole entry): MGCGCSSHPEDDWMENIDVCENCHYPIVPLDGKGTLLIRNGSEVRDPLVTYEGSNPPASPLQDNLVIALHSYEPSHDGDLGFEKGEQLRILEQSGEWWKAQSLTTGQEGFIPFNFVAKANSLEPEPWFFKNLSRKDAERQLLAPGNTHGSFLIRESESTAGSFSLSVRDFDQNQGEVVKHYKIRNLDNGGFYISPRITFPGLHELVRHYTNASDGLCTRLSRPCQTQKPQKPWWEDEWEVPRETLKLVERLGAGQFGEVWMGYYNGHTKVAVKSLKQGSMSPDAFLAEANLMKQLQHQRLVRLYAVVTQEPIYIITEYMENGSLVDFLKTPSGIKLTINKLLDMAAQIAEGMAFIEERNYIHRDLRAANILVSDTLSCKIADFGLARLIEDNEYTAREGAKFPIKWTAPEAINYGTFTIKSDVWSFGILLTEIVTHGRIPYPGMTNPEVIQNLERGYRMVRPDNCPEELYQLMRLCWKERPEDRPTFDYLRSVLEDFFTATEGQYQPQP
Sequence of Angiopoietin-1 receptor (Q02763 whole entry): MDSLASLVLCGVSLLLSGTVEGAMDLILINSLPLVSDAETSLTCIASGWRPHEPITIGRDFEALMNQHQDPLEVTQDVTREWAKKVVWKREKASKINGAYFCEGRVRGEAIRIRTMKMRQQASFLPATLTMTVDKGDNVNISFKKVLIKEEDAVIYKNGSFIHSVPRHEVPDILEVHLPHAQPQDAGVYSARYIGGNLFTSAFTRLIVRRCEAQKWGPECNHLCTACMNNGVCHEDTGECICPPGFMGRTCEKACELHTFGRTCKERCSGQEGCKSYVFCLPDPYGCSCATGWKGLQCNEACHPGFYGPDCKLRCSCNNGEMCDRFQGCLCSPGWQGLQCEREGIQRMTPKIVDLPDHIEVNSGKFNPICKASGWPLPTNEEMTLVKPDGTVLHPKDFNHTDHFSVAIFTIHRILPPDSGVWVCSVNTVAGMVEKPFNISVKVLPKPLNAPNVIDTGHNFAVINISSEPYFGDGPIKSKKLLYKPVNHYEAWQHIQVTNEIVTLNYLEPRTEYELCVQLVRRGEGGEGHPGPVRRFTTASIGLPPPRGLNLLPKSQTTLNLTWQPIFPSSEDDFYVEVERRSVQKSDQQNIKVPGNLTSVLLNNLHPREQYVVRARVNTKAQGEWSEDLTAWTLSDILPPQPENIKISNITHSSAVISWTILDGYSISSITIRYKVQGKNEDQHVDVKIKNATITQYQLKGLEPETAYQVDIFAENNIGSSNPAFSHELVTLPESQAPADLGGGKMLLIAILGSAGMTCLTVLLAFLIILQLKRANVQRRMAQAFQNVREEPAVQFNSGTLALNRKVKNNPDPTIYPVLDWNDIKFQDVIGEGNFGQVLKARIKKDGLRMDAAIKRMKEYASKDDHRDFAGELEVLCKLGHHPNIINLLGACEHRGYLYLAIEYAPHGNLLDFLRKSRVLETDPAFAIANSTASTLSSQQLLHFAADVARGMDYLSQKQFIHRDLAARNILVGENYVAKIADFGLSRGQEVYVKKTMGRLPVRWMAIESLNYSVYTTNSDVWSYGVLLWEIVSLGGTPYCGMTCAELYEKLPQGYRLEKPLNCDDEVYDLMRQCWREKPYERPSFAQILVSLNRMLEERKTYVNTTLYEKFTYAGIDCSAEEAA
Sequence of Vascular endothelial growth factor receptor 2 (P35968 whole entry): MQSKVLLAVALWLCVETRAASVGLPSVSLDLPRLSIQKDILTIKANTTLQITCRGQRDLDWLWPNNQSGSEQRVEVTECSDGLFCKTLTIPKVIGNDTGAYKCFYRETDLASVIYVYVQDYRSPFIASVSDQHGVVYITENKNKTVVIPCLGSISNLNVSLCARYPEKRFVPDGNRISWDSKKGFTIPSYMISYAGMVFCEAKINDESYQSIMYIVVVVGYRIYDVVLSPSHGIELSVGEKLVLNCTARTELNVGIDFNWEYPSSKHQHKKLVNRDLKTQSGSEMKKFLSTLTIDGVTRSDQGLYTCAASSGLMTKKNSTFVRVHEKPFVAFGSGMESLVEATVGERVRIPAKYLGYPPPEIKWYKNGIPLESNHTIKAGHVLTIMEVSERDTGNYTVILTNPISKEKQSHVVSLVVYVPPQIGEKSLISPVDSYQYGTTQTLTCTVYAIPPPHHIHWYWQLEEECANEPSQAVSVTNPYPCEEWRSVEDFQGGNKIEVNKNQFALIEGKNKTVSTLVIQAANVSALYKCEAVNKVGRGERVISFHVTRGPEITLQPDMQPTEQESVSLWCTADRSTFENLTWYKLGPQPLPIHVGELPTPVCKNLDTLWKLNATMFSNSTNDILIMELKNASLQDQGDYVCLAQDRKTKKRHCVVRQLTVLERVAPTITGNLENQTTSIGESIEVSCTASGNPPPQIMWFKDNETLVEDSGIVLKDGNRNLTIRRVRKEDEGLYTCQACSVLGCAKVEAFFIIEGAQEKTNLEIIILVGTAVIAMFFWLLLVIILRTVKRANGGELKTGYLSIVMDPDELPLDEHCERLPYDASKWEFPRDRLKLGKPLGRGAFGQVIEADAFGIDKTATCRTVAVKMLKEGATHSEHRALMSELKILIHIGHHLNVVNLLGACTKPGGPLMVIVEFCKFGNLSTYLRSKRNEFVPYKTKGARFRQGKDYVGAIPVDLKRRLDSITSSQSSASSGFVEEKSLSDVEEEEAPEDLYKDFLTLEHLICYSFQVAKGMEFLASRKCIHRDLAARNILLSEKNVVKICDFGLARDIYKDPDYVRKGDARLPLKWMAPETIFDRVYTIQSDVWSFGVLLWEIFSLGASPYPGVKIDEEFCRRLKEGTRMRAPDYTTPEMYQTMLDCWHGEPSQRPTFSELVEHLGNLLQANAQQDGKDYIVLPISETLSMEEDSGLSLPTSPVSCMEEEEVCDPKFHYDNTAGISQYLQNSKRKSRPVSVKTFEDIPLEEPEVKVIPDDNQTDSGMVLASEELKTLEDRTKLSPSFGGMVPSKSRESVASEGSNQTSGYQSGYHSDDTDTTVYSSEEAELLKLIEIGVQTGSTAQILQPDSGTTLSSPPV
Sequence of Mitogen-activated protein kinase 14 (Q16539 whole entry): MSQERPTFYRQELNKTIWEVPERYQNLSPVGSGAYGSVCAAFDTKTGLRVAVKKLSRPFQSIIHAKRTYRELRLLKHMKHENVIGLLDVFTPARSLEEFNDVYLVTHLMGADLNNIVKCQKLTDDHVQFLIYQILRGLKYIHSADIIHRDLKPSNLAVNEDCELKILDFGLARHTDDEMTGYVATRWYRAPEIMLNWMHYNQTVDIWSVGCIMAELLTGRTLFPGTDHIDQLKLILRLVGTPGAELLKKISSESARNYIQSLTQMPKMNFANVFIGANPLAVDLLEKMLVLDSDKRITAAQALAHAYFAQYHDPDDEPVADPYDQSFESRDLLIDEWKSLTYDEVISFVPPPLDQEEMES
Sequence of Serine/threonine-protein kinase B-raf (P15056 2-766 V600E limits assumed): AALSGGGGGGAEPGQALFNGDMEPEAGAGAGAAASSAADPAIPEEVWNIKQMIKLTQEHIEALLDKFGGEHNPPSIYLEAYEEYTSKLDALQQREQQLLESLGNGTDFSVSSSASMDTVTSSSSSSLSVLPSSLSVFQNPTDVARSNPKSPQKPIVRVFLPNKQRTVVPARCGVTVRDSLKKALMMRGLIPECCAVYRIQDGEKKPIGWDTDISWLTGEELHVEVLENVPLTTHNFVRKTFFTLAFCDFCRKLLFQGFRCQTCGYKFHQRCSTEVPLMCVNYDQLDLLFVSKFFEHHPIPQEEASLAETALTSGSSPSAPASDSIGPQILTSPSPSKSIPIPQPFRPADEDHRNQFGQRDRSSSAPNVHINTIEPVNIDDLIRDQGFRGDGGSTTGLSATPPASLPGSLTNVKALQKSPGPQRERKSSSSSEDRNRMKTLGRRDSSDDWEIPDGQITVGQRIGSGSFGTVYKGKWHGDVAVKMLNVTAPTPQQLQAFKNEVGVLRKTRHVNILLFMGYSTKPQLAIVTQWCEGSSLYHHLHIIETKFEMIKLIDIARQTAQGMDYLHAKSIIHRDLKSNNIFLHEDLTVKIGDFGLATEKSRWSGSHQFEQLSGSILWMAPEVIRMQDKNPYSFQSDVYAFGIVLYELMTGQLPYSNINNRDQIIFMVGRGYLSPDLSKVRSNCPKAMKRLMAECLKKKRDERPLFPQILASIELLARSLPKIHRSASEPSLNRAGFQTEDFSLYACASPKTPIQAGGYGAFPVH

| SMILES | half-life [1] [h] | IC50 [3] [nM] | IC50 [8] [nM] | IC50 (Angiopoietin-1 receptor) [nM] | Vd [10] [L/kg] | bioavailability [12] [%] | IC50 [13] [nM] | clearance [14] [mL/min/kg] | ED50 (A-375 [2]) [mg/kg] | IC50 [15] [nM] | inhibition in vivo at 35 mg/kg (Mus musculus [16]) [%] | Activity (A-375 [19]) [%] | also measured |
| --- | --- | --- | --- | --- | --- | --- | --- | --- | --- | --- | --- | --- | --- |
| Cc1ccc2c(Nc3cccc(C(F)(F)F)c3)nccc2c1Nc1ncccc1-c1ccncn1 | 4.5 | > 1600 | 760 | 47 | 3.7 | 22 | 81 | 20 | – | 17 | – | – | – |
| CNc1ncc2cc(-c3cc(C(=O)Nc4cccc(C(F)(F)F)c4)ccc3C)ccc2n1 | 2.3 | 3.5 | – | 1.8 | 3.6 | – | 0.27 | 26.7 | – | 1.7 | – | – | – |
| CNc1ncc2cc(-c3c(C)ccc4c(Nc5ccc(Cl)cc5)nccc34)ccc2n1 | – | > 1600 | > 25000 | > 1000 | – | – | 110 | – | – | 5.4 | – | – | – |
| CNc1ncc2cc(-c3c(C)ccc4c(Nc5ccc6c(c5)NC(=O)C6(C)C)nccc34)ccc2n1 | 4.8 | 51 | 240 | > 1000 | 4.3 | 55 | 78 | 10.8 | 4.7 | 21 | 85 | 75 | inhibition in vivo at 20 mg/kg (Mus musculus [23]): 82%; Activity (A-375 [24]): 55%; inhibition in vivo at 10 mg/kg (Mus musculus [21]): 60%; inhibition in vivo at 10 mg/kg (A-375 [22]): 85% |
| Cc1ccc(C(=O)Nc2cccc(C(F)(F)F)c2)cc1Nc1ncccc1-c1ccncn1 | 1.3 | 12 | 4.2 | – | 1.9 | 16 | – | 35 | – | 0.46 | – | – | – |
| CNc1cc(-c2cccnc2Nc2c(C)ccc3c(Nc4ccc(Cl)cc4)nccc23)ncn1 | 4.7 | > 1600 | 300 | 24 | 1.7 | 100 | 12 | 4.83 | – | 56 | – | – | – |
| CNc1cc(-c2cccnc2Nc2c(C)ccc3c(Nc4ccc5sc(C)nc5c4)nccc23)ncn1 | 2.9 | 350 | 170 | 5.8 | 0.72 | 100 | 23 | 5.5 | 11 | – | 66 | 24 | inhibition in vivo at 20 mg/kg (Mus musculus [23]): 52%; inhibition in vivo at 20 mg/kg (A-375 [24]): 85%; AUC at 24 h [18]: 12300 ng·h/mL; inhibition in vivo at 10 mg/kg (Mus musculus [21]): 30%; inhibition in vivo at 10 mg/kg (A-375 [22]): 42% |

More lines, main results first:

| half-life [1] [h] | IC50 [3] [nM] | IC50 [8] [nM] | IC50 (Angiopoietin-1 receptor) [nM] | Vd [10] [L/kg] | bioavailability [12] [%] | IC50 [13] [nM] | clearance [14] [mL/min/kg] | SMILES | ED50 (A-375 [2]) [mg/kg] | IC50 [15] [nM] | inhibition in vivo at 35 mg/kg (Mus musculus [16]) [%] | Activity (A-375 [19]) [%] | also measured |
| --- | --- | --- | --- | --- | --- | --- | --- | --- | --- | --- | --- | --- | --- |
| 3.9 | 110 | 230 | 200 | 5.5 | 24 | 21 | 30 | CNc1ncc2cc(-c3c(C)ccc4c(Nc5cc(C(C)(C)C)nn5C)nccc34)ccc2n1 | 27 | – | – | – | inhibition in vivo at 60 mg/kg (A-375 [4]): 90%; inhibition in vivo at 60 mg/kg (Mus musculus [5]): 67%; inhibition in vivo at 30 mg/kg (A-375 [6]): 60%; inhibition in vivo at 100 mg/kg (Mus musculus [7]): 78%; Activity (A-375 [9]): 45%; inhibition in vivo at 30 mg/kg (Mus musculus [11]): 50% |
| 2.7 | > 1600 | > 1000 | 400 | 0.37 | 100 | 150 | 1.83 | CNc1cc(-c2cccnc2Nc2c(C)ccc3c(Nc4ccc(C#N)cc4)nccc23)ncn1 | 11.5 | 39 | 78 | 17 | inhibition in vivo at 17.5 mg/kg (A-375 [17]): 80%; AUC at 24 h [18]: 52800 ng·h/mL; inhibition in vivo at 17.5 mg/kg (Mus musculus [20]): 63%; inhibition in vivo at 10 mg/kg (Mus musculus [21]): 21%; inhibition in vivo at 10 mg/kg (A-375 [22]): 50% |
| 2.8 | 450 | 420 | 8.1 | 2.2 | 76 | 210 | 12.2 | C#Cc1cccc(Nc2nccc3c(Nc4ncccc4-c4cc(NC)ncn4)c(C)ccc23)c1 | 13 | – | 81 | 54 | inhibition in vivo at 20 mg/kg (Mus musculus [23]): 40%; inhibition in vivo at 20 mg/kg (A-375 [24]): 78%; inhibition in vivo at 5 mg/kg (A-375 [25]): 18%; inhibition in vivo at 5 mg/kg (Mus musculus [26]): 5%; AUC at 24 h [18]: 9410 ng·h/mL |
| 3.5 | > 1600 | > 25000 | 520 | 2.2 | 83 | 280 | 11.2 | Cc1ccc2c(Nc3ccc(Cl)cc3)nccc2c1Nc1ncccc1-c1ccncn1 | – | 3.4 | – | – | – |
